pEC50: −log10 of the molar value.
Biological target: AMPK
Test: AMPK activation, enzyme-linked immunosorbent assay
Format: biochemical
Settings: compounds of Table 1 (Table 6)
Description: Compounds of Table 1 were assayed for their ability to activate AMPK using an enzyme-linked immunosorbent assay.
Compounds of Table 2 were assayed for their ability to activate AMPK using an enzyme-linked immunosorbent assay.
Compounds of Table 3 were assayed for their ability to activate AMPK using an enzyme-linked immunosorbent assay.
Compounds of Table 4 were assayed for their ability to activate AMPK using an enzyme-linked immunosorbent assay.
Compounds of Table 5 were assayed for their ability to activate AMPK using an enzyme-linked immunosorbent assay.

| pEC50 | SMILES |
| --- | --- |
| 5.00 to 5.30 | Cc1c(C(=O)NC2CCNCC2)oc2cc(OC3CCN(c4ccc(C(F)(F)F)cc4)CC3)ccc12 [1-62, 3-methyl-N-(piperidin-4-yl)-6-(1-(4-(trifluoromethyl)phenyl)piperidin-4-yloxy)benzofuran-2-carboxamide] |
| > 7.00 | Cc1c(C(=O)NC2CCN(Cc3ccc(F)cc3)CC2)oc2cc(OC3CCN(c4ccc(C(F)(F)F)cc4)CC3)ccc12 [1-63, N-(1-(4-fluorobenzyl)piperidin-4-yl)-3-methyl-6-(1-(4-(trifluoromethyl)phenyl)piperidin-4-yloxy)benzofuran-2-carboxamide] |
| > 7.00 | Cc1c(C(=O)NC2CCN(Cc3ccc(C#N)cc3)CC2)oc2cc(OC3CCN(c4ccc(C(F)(F)F)cc4)CC3)ccc12 [1-64, N-(1-(4-cyanobenzyl)piperidin-4-yl)-3-methyl-6-(1-(4-(trifluoromethyl)phenyl)piperidin-4-yloxy)benzofuran-2-carboxamide] |
| > 7.00 | Cc1c(C(=O)NC2CCN(Cc3ccncc3)CC2)oc2cc(OC3CCN(c4ccc(C(F)(F)F)cc4)CC3)ccc12 [1-65, 3-methyl-N-(1-(pyridin-4-ylmethyl)piperidin-4-yl)-6-(1-(4-(trifluoromethyl)phenyl)piperidin-4-yloxy)benzofuran-2-carboxamide] |
| > 7.00 | Cc1c(C(=O)NC2CCN(Cc3cccc(C#N)c3)CC2)oc2cc(OC3CCN(c4ccc(C(F)(F)F)cc4)CC3)ccc12 [1-66, N-(1-(3-cyanobenzyl)piperidin-4-yl)-3-methyl-6-(1-(4-(trifluoromethyl)phenyl)piperidin-4-yloxy)benzofuran-2-carboxamide] |
| > 7.00 | Cc1c(C(=O)NC2CCN(Cc3ccccc3C#N)CC2)oc2cc(OC3CCN(c4ccc(C(F)(F)F)cc4)CC3)ccc12 [1-67, N-(1-(2-cyanobenzyl)piperidin-4-yl)-3-methyl-6-(1-(4-(trifluoromethyl)phenyl)piperidin-4-yloxy)benzofuran-2-carboxamide] |
| > 7.00 | Cc1c(C(=O)NC2CCN(Cc3ccccn3)CC2)oc2cc(OC3CCN(c4ccc(C(F)(F)F)cc4)CC3)ccc12 [1-68, 3-methyl-N-(1-(pyridin-2-ylmethyl)piperidin-4-yl)-6-(1-(4-(trifluoromethyl)phenyl)piperidin-4-yloxy)benzofuran-2-carboxamide] |
| > 7.00 | Cc1c(C(=O)NC2CCN(Cc3cccnc3)CC2)oc2cc(OC3CCN(c4ccc(C(F)(F)F)cc4)CC3)ccc12 [1-69, 3-methyl-N-(1-(pyridin-3-ylmethyl)piperidin-4-yl)-6-(1-(4-(trifluoromethyl)phenyl)piperidin-4-yloxy)benzofuran-2-carboxamide] |
| > 7.00 | N#Cc1ccc(CN2CCC(Oc3ccc4oc(C(=O)NC5CCN(Cc6ccccc6)CC5)cc4c3)CC2)cc1 [1-70, N-(1-benzylpiperidin-4-yl)-5-(1-(4-cyanobenzyl)piperidin-4-yloxy)benzofuran-2-carboxamide] |
| > 7.00 | N#Cc1ccc(N2CCC(Oc3ccc4oc(C(=O)NC5CCN(Cc6ccccc6)CC5)cc4c3)CC2)cc1 [1-71, N-(1-benzylpiperidin-4-yl)-5-(1-(4-cyanophenyl)piperidin-4-yloxy)benzofuran-2-carboxamide] |
| 6.30 to 7.00 | O=C(NC1CCN(Cc2ccccc2)CC1)c1cc2cc(OC3CCN(Cc4ccc(Cl)cc4)CC3)ccc2o1 [1-72, N-(1-benzylpiperidin-4-yl)-5-(1-(4-chlorobenzyl)piperidin-4-yloxy)benzofuran-2-carboxamide] |
| 6.00 to 6.30 | O=C(NC1CCN(Cc2ccccc2)CC1)c1cc2cc(OC3CCN(Cc4cccc(C(F)(F)F)c4)CC3)ccc2o1 [1-73, N-(1-benzylpiperidin-4-yl)-5-(1-(3-(trifluoromethyl)benzyl)piperidin-4-yloxy)benzofuran-2-carboxamide] |
| 6.30 to 7.00 | O=C(NC1CCN(Cc2ccccc2)CC1)c1cc2cc(OC3CCN(Cc4ccc(F)c(F)c4)CC3)ccc2o1 [1-74, N-(1-benzylpiperidin-4-yl)-5-(1-(3,4-difluorobenzyl)piperidin-4-yloxy)benzofuran-2-carboxamide] |
| > 7.00 | O=C(NC1CCN(Cc2ccccc2)CC1)c1cc2cc(OC3CCN(c4ccc(C(F)(F)F)cc4)CC3)ccc2o1 [1-75, N-(1-benzylpiperidin-4-yl)-5-(1-(4-(trifluoromethyl)phenyl)piperidin-4-yloxy)benzofuran-2-carboxamide] |
| 6.30 to 7.00 | O=C(NC1CCN(Cc2ccncc2)CC1)c1cc2cc(OC3CCN(c4ccc(C(F)(F)F)cc4)CC3)ccc2o1 [1-76, N-(1-(pyridin-4-ylmethyl)piperidin-4-yl)-5-(1-(4-(trifluoromethyl)phenyl)piperidin-4-yloxy)benzofuran-2-carboxamide] |
| 6.30 to 7.00 | O=C(NC1CCN(Cc2ccncc2)CC1)c1cc2cc(OC3CCN(Cc4ccc(Cl)cc4)CC3)ccc2o1 [1-77, 5-(1-(4-chlorobenzyl)piperidin-4-yloxy)-N-(1-(pyridin-4-ylmethyl)piperidin-4-yl)benzofuran-2-carboxamide] |
| > 7.00 | O=C(NC1CCN(Cc2ccncc2)CC1)c1cc2cc(OC3CCN(c4ccc(OC(F)(F)F)cc4)CC3)ccc2o1 [1-78, N-(1-(pyridin-4-ylmethyl)piperidin-4-yl)-5-(1-(4-(trifluoromethoxy)phenyl)piperidin-4-yloxy)benzofuran-2-carboxamide] |
| 6.30 to 7.00 | N#Cc1ccc(CN2CCC(Oc3ccc4oc(C(=O)NC5CCN(Cc6ccncc6)CC5)cc4c3)CC2)cc1 [1-79, 5-(1-(4-cyanobenzyl)piperidin-4-yloxy)-N-(1-(pyridin-4-ylmethyl)piperidin-4-yl)benzofuran-2-carboxamide] |
| > 7.00 | O=C(NC1CCN(Cc2ccccc2)CC1)c1cc2cc(OC3CCN(c4ccc(OC(F)(F)F)cc4)CC3)ccc2o1 [1-80, N-(1-benzylpiperidin-4-yl)-5-(1-(4-(trifluoromethoxy)phenyl)piperidin-4-yloxy)benzofuran-2-carboxamide] |
| 6.30 to 7.00 | CC(C)(C)OC(=O)N1CCC(NC(=O)c2cc3ccc(OC4CCN(c5ccc(OC(F)(F)F)cc5)CC4)cc3o2)CC1 [1-81, tert-butyl 4-(6-(1-(4-(trifluoromethoxy)phenyl)piperidin-4-yloxy)benzofuran-2-carboxamido)piperidine-1-carboxylate] |
| 6.30 to 7.00 | CC(C)(C)OC(=O)N1CCC(NC(=O)c2cc3ccc(OC4CCN(c5ccc(C(F)(F)F)cc5)CC4)cc3o2)CC1 [1-82, tert-butyl 4-(6-(1-(4-(trifluoromethyl)phenyl)piperidin-4-yloxy)benzofuran-2-carboxamido)piperidine-1-carboxylate] |
| 6.30 to 7.00 | O=C(NC1CCNCC1)c1cc2ccc(OC3CCN(c4ccc(OC(F)(F)F)cc4)CC3)cc2o1 [1-83, N-(piperidin-4-yl)-6-(1-(4-(trifluoromethoxy)phenyl)piperidin-4-yloxy)benzofuran-2-carboxamide] |
| 5.00 to 5.30 | O=C(NC1CCNCC1)c1cc2ccc(OC3CCN(c4ccc(C(F)(F)F)cc4)CC3)cc2o1 [1-84, N-(piperidin-4-yl)-6-(1-(4-(trifluoromethyl)phenyl)piperidin-4-yloxy)benzofuran-2-carboxamide] |
| 6.00 to 6.30 | CC(C)(C)OC(=O)N1CCC(NC(=O)c2cc3cc(OC4CCN(c5ccc(C(F)(F)F)cc5)CC4)ccc3o2)CC1 [1-85, tert-butyl 4-(5-(1-(4-(trifluoromethyl)phenyl)piperidin-4-yloxy)benzofuran-2-carboxamido)piperidine-1-carboxylate] |
